Measurements taken from patent US4820726A, “Oxaloamino substituted fluorinated resorcinol ethers and anti-allergic and anti-inflammatory use thereof” (Ciba-Geigy Corporation, priority 1985, dated 1989).

Experiments:
[1] = tested on: LTD4 -induced contractions of the guinea-pig ileum; test: Inhibiting effect on LTD4-induced contractions of the guinea-pig ileum; type: cell-based; conditions: Cavia porcellus; isolated guinea-pig ileum, Tyrode solution, 38° C.; read-out: IC50, concentration which reduces LTD4 -induced contractions to 50% of the starting value
Description: Thus, they have an antiallergic action based on a pronounced LTD4 -(leucotriene-D4)- and PAF-(PAF-acetoether)-antagonism.
Inhibiting effect on LTD4 -induced contractions of the guinea-pig ileum
Contractions are triggered off by synthetic LTD4 (leucotriene D4, potassium salt) on ileum segments which have been taken from guinea-pigs with a body weight of 300 to 400 g, fixed in an organ bath in Tyrode solution (38° C., gassing with 95% of O2 and 5% of CO2) and loaded with […], and the degree of the contractions is recorded. The degree of inhibition of these contractions to be attributed to the LTD4 -antagonistic action of the test substance is measured. The concentration, designated the IC50, of the test substance which reduces LTD4 -induced contractions to 50% of the starting value is determined.

[2] = target: phospholipase A2 from human leucocytes; test: In vitro test for the determination of the inhibition of phospholipase A2 from human leucocytes; type: biochemical; conditions: enzyme from human leucocytes, 14C-oleic acid labelled E. coli phospholipids, pH 7, 37° C., 1 hour; read-out: IC50, concentration which causes an inhibition of 50% of the control activity of phospholipase A2
Source text: In vitro test for the determination of the inhibition of phospholipase A2 from human leucocytes
Neutrophilic polymorphonuclear human leucocytes are isolated, starting from "buffy coats" by multi-stage fractional sedimentation and are deep-frozen.The phospholipase A2 is extracted from the cell suspension by homogenisation with the addition of ice-cold 0.36N H2 SO4 in 2M NaCl, and the supernatant obtained after centrifugation at 10,000 g is dialysed against sodium acetate buffer, pH 4.5.
To determine the enzyme activity, the enzyme (10-30 μg of protein) is incubated in 0.1M tris/HCl buffer, pH 7, with the addition of 1 mM CaCl2 and substrate consisting of phospholipids (2 μM), radioactively labelled biosynthetically with ^14 C-oleic acid, of Escherichia coli, at 37° C. for 1 hour. The reaction is stopped by addition of Dole reagent (isopropanol/heptane/1N H2 SO4 40:10:1, volume/volume) and the ^14 C-oleic acid released selectively by phospholipase A2 is extracted. The substrate also co-extracted is removed completely by filtration of the extract through a silica gel column. The ^14 C-oleic acid in the eluate is determined by radiometry.
To determine an inhibiting effect of test substances on the phospholipase A2, these are added to the incubation batch as solutions in water, dimethylsulfoxide (final concentration in the batch up to 5 vol %) or ethanol (final concentration in the batch up to 2.5 vol %). The action potency of the test substances is expressed by the IC50, i.e. the concentration which causes an inhibition of 50% of the control activity. The IC50 is determined graphically by plotting the percentage inhibition on the ordinate against the logarithm of the concentration (μM) on the abscissa.

| SMILES | IC50 [1] [µM] | IC50 [2] [µM] |
| --- | --- | --- |
| CCCc1c(OCC(O)COc2cccc(NC(=O)C(=O)O)c2C#N)ccc(C(C)=O)c1O (centres unmarked) [N-{3-[3-(4-acetyl-3-hydroxy-2-propyl-phenoxy)-2-hydroxypropoxy]-2-cyano-phenyl}-oxamic acid, reference compound] | 0.087 | > 100 |
| CC(=O)c1ccc(OCCCOc2cc(NC(=O)c3nnn[nH]3)c(C)cc2Cl)c(CCC(F)(F)F)c1O [N-{{3-{3-[4-acetyl-3-hydroxy-2-(3,3,3-trifluoropropyl)-phenoxy]-propoxy}-4-chloro-6-methyl-phenyl}}-1H-tetrazole-5-carboxamide] |  | 13 |
| CC(=O)c1ccc(OCCCOc2cc(NC(=O)c3nnn[nH]3)c(C)cc2Br)c(CCC(F)(F)F)c1O [N-{{3-{3-[4-acetyl-3-hydroxy-2-(3,3,3-trifluoropropyl)phenoxy]-propoxy}-4-bromo-6-methyl-phenyl}}-1H-tetrazole-5-carboxamide] | 0.01 | 12 |
